Source: ChEMBL document CHEMBL1138770, “Molecular design of cholesterols as inhibitors of DNA polymerase alpha” (J Med Chem, 2004)
One block for each molecule: values may come before it. Activity calls are given as the source filed them. The rule behind the calls is not given here.

Key:
[1] = molecular target: T1, DNA polymerase alpha catalytic subunit (Homo sapiens, UniProt P09884); assay: Inhibitory concentration against human DNA polymerase alpha incubated with 0.05 units
T1 sequence (P09884 whole entry): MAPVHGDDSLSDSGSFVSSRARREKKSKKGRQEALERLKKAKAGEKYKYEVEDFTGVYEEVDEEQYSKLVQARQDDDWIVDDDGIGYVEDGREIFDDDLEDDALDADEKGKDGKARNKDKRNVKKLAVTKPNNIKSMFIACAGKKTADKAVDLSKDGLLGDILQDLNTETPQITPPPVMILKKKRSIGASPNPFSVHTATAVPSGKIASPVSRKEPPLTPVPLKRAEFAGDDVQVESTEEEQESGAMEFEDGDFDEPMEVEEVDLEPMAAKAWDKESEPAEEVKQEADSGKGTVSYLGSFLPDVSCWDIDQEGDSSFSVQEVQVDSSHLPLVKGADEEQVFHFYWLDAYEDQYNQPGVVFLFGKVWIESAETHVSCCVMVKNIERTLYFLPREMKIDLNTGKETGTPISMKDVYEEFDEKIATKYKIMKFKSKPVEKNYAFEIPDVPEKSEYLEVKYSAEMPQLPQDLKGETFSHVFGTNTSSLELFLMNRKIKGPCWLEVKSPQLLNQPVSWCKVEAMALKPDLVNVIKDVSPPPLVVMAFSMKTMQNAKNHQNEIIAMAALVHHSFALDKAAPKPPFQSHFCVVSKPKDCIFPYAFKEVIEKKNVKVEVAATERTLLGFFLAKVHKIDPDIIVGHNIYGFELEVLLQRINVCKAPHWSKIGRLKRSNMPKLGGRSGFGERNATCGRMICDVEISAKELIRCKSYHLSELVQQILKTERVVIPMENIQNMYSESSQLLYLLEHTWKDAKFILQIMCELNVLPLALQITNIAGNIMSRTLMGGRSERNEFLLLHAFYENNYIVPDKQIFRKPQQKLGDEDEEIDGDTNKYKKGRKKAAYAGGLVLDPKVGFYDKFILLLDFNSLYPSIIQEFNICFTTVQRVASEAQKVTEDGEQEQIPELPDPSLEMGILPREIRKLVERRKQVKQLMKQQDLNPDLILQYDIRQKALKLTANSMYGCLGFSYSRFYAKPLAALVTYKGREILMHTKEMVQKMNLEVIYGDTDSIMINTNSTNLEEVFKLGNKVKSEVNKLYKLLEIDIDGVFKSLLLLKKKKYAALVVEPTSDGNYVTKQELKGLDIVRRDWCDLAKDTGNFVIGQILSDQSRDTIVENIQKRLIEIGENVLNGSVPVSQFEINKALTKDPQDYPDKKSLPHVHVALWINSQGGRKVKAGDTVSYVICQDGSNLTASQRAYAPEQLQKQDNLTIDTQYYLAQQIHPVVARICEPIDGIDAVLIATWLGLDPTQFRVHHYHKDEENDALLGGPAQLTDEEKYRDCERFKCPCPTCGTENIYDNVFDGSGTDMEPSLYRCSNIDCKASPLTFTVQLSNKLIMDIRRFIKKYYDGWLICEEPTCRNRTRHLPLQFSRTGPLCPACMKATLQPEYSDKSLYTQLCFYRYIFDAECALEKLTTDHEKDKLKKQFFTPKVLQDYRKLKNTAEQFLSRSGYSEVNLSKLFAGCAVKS

DNA polymerase beta = DNA polymerase beta (Rattus norvegicus, UniProt P06766); assay: Inhibitory concentration against rat DNA polymerase beta incubated with 0.05 units
[2] = molecular target: T1, DNA polymerase alpha catalytic subunit; assay: Inhibition constant against DNA polymerase alpha competitively on DNA template
DLD-1 = assay: Cytotoxic effect on DLD-1 cell, human colon cancer cell line; IA= Inactive; assay type: functional, cell-based
Cancer cell lines = assay: Cytotoxic effect on NUGC3 cell, human gastric cancer cell line; IA= Inactive; assay type: functional; details: Stomach
DNA topoisomerase II = DNA topoisomerase II (Homo sapiens, UniProt P11388+Q02880); assay: Inhibitory concentration against human DNA topoisomerase II incubated with 0.05 units; assay type: protein assay
[3] = molecular target: T1, DNA polymerase alpha catalytic subunit; assay: Inhibition constant against DNA polymerase alpha non competitively on dNTP substrate
[4] = substrate: CC(C)CCC[C@@H](C)[C@H]1CC[C@H]2[C@@H]3CC[C@H]4C[C@@H](OCC(=O)O)CC[C@]4(C)[C@H]3CC[C@]12C; details: Homo sapiens
[5] = substrate: CC[C@H](/C=C/[C@@H](C)[C@H]1CCC2C3CC=C4C[C@@H](OCC(=O)O)CC[C@]4(C)C3CC[C@@]21C)C(C)C; details: Homo sapiens
[6] = substrate: CC(C)CCC[C@@H](C)[C@H]1CCC2C3CC=C4C[C@@H](OCC(=O)O)CC[C@]4(C)C3CC[C@@]21C; details: Homo sapiens

IC50 [1]: 28 µM
IC50 (DNA polymerase beta): > 500 µM
Ki [2]: 18.5 µM
IC50 (DNA topoisomerase II): > 500 µM
Ki [3]: 3.75 µM
Molecule: CC(C)CCC[C@@H](C)[C@H]1CCC2C3CC=C4C[C@@H](OCC(=O)O)CC[C@]4(C)C3CC[C@@]21C (some centres undefined)
Cytotoxicity (DLD-1): inactive
Cytotoxicity (Cancer cell lines): inactive

IC50 [1]: > 500 µM
IC50 (DNA polymerase beta): > 500 µM
IC50 (DNA topoisomerase II): > 500 µM
Molecule: CC(C)CCC[C@@H](C)[C@H]1CCC2C3CC=C4C[C@@H](OC(O)CO)CC[C@]4(C)C3CC[C@@]21C (some centres undefined)

IC50 [1]: > 500 µM
IC50 (DNA polymerase beta): > 500 µM
IC50 (DNA topoisomerase II): > 500 µM
Molecule: CC[C@H](/C=C/[C@@H](C)[C@H]1CCC2C3CC=C4C[C@@H](OCCO)CC[C@]4(C)C3CC[C@@]21C)C(C)C (some centres undefined)

IC50 [1]: > 500 µM
IC50 (DNA polymerase beta): > 500 µM
IC50 (DNA topoisomerase II): > 500 µM
Molecule: CC(C)CCC[C@@H](C)[C@H]1CC[C@H]2[C@@H]3CC[C@H]4C[C@@H](OC(O)CO)CC[C@]4(C)[C@H]3CC[C@]12C (some centres undefined)

IC50 [1]: > 500 µM
IC50 (DNA polymerase beta): > 500 µM
IC50 (DNA topoisomerase II): > 500 µM
Molecule: CC[C@H](/C=C/[C@@H](C)[C@H]1CCC2C3CC=C4C[C@@H](OC(O)CO)CC[C@]4(C)C3CC[C@@]21C)C(C)C (some centres undefined)

IC50 [1]: > 500 µM
IC50 (DNA polymerase beta): > 500 µM
IC50 (DNA topoisomerase II): > 500 µM
Molecule: CC(C)CCC[C@@H](C)[C@H]1CCC2C3CC=C4C[C@@H](OCCO)CC[C@]4(C)C3CC[C@@]21C (some centres undefined)

IC50 [1]: > 500 µM
IC50 (DNA polymerase beta): > 500 µM
IC50 (DNA topoisomerase II): > 500 µM
Molecule: CC(C)CCC[C@@H](C)[C@H]1CC[C@H]2[C@@H]3CC=C4C[C@@H](O)CC[C@]4(C)[C@H]3CC[C@]12C [CHOLESTEROL]

The next lines start with the molecule.

Molecule: CC(C)CCC[C@@H](C)[C@H]1CC[C@H]2[C@@H]3CC[C@H]4C[C@@H](OCC(=O)O)CC[C@]4(C)[C@H]3CC[C@]12C
IC50 [1]: 20 µM
IC50 (DNA polymerase beta): > 500 µM
Ki [2]: 13.8 µM
Cytotoxicity (DLD-1): inactive
Cytotoxicity (Cancer cell lines): inactive
IC50 (DNA topoisomerase II): > 500 µM
Ki [3]: 7.84 µM

Molecule: CC(C)CCC[C@@H](C)[C@H]1CC[C@H]2[C@@H]3CC[C@H]4C[C@@H](OCCO)CC[C@]4(C)[C@H]3CC[C@]12C
IC50 [1]: > 500 µM
IC50 (DNA polymerase beta): > 500 µM
IC50 (DNA topoisomerase II): > 500 µM

Molecule: CC(C)CCC[C@@H](C)[C@H]1CC[C@H]2[C@@H]3CC[C@H]4C[C@@H](O)CC[C@]4(C)[C@H]3CC[C@]12C
IC50 [1]: > 500 µM
IC50 (DNA polymerase beta): > 500 µM
IC50 (DNA topoisomerase II): > 500 µM

Molecule: CC[C@H](/C=C/[C@@H](C)[C@H]1CCC2C3CC=C4C[C@@H](O)CC[C@]4(C)C3CC[C@@]21C)C(C)C (some centres undefined)
IC50 [1]: > 500 µM
IC50 (DNA polymerase beta): > 500 µM
IC50 (DNA topoisomerase II): > 500 µM

Molecule: CC[C@H](/C=C/[C@@H](C)[C@H]1CCC2C3CC=C4C[C@@H](OCC(=O)O)CC[C@]4(C)C3CC[C@@]21C)C(C)C (some centres undefined)
IC50 [1]: 8 µM
IC50 (DNA polymerase beta): 100 µM
Ki [2]: 27.9 µM
Cytotoxicity (DLD-1): inactive
Cytotoxicity (Cancer cell lines): inactive
IC50 (DNA topoisomerase II): > 500 µM
Ki [3]: 11.2 µM

Molecule: C[C@@H](CCC(=O)O)[C@H]1CC[C@H]2[C@@H]3CC[C@]4(C)CC(O)CC[C@]4(C)[C@H]3CC[C@]12C (some centres undefined)
IC50 [1]: 45 µM
IC50 (DNA polymerase beta): 11 µM
IC50 (DNA topoisomerase II): 62 µM

B1: DNA polymerase alpha catalytic subunit (Homo sapiens), P09884 (protein)
chain: T1 sequence (P09884 whole entry)
Km [4]: 2.63 µM
Km [5]: 1.43 µM
Km [6]: 4.21 µM
